The conditions of data set [1]: human, in vivo. An excerpt: In some embodiments, intravenous fluorescein can be used as the fluorescent agent.
For data set [2] the following is noted: human, cited from earlier work.

Turning to `O=C1OC2(c3ccc(O)cc3Oc3cc(O)ccc32)c2ccccc21` [fluorescein], in data set [1], the “concentration of fluorescein in urine” value is reported as “about 0.1 mg/ml”, the “concentration of fluorescein in urine relative to concentration in the blood” value is given as “about 5 ×” and the “rate of drug excreted into the ureters” value is reported as 0.05 mg/min. In addition, the “fraction of dose metabolized” value in data set [2] (14 mg/kg dose, IV, within 1 hour of administration) is 80%. The “time the urine remains slightly fluorescent post dose” value in data set [2] (post dose) was 24 to 36 h. In data set [2], the volume of distribution was 0.5 L/kg.

(Values after patent publication US7996068B2, “Surgical method and apparatus for identification of fluorescence” (The Board of Trustees of the Leland Stanford Junior …, priority 2007, dated 2011).)
